The results in this text go back to patent publication US4203980A, “Benzylpyrimidine derivatives” (Hoffmann-La Roche Inc., priority 1977, dated 1980).

One may read the pIC50 as the IC50 on a negative log10 scale, so that one unit is a factor of ten.

pIC50: −log10 of the molar value.

The target in this assay is DHFR (E. coli) (Escherichia coli, UniProt P0ABQ4). Description: 50% inhibition of the bacterial dihydrofolic acid reductase (DHFR), E. coli. Type of assay: biochemical. An excerpt:
The compounds of formula I have antibacterial activity. More specifically, the compounds of formula I inhibit the bacterial dihydrofolic acid reductase (DHFR) and, moreover, potentiate the activity of sulfonamides and other dihydrofolic acid synthetase inhibitors. Exemplary of the sulfonamides which are potentiated by the compounds provided by the present invention are sulfadiazine, sulfadimethoxine, sulfadoxine, sulfamethoxazole, sulfisoxazole, sulfamoxole, 3-sulfanilamido-4,5-dimethylisoxazole, sulfalene, sulfamerazine, sulfameter, sulfamethazine and 6-methoxy-4-sulfanilamido-pyrimidine. […] Quantitatively, however, compared with known compounds, the compounds of formula I of the present invention are characterized by lower 50% inhibitory concentrations of the bacterial DHFR, for example, in the case of E. coli, and by substantially higher Q-values, that is 50% inhibition of the DHFR in the case of rats/50% inhibition of the DHFR in the case of E. coli, which represents a measurement of the selectivity of the inhibition of the bacterial DHFR.

With `C=C(C)c1c(OC)cc(Cc2cnc(N)nc2N)cc1OCC` [Compound 3, 2,4-diamino-5-(3-ethoxy-4-isopropenyl-5-methoxybenzyl)-pyrimidine], the pIC50 is 8.49.

On to `C=C(C)c1c(OC)cc(Cc2cnc(N)nc2N)cc1OC` [Compound 2, 2,4-diamino-5-(4-isopropenyl-3,5-dimethoxybenzyl)-pyrimidine], for which the pIC50 is 8.47.

For `C=C(C)c1c(OCC)cc(Cc2cnc(N)nc2N)cc1OCC` [Compound 1, 2,4-diamino-5-(3,5-diethoxy-4-isopropenylbenzyl)-pyrimidine], the pIC50 was 8.66.
